{"source": "patent US10337014B2", "about": "“Low molecular weight cyclic amine containing cationic lipids for oligonucleotide delivery” (SIRNA THERAPEUTICS, INC., priority 2010, dated 2019)", "key": {"[1]": {"test": "Determination of cationic lipid levels in rat liver (LC/MS-MS)", "type": "in vivo", "settings": "rats dosed with RDV, 0.5 mg/kg; compared with RDV containing DLinKC2DMA (Compound 12) or MC3 (Compound 13), also 0.5 mg/kg", "procedure": "Liver tissue was weighed into 20-ml vials and homogenized in 9 v/w of water using a GenoGrinder 2000 (OPS Diagnostics, 1600 strokes/min, 5 min). A 50 μL aliquot of each tissue homogenate was mixed with 300 μL of extraction/protein precipitating solvent (50/50 acetonitrile/methanol containing 500 nM internal standard) and the plate was centrifuged to sediment precipitated protein. A volume of 200 μL of each supernatant was then transferred to separate wells of a 96-well plate and 10 μl samples were directly analyzed by LC/MS-MS.\nStandards were prepared by spiking known amounts of a methanol stock solution of compound into untreated rat liver homogenate (9 vol water/weight liver). Aliquots (50 μL) each standard/liver homogenate was mixed with 300 μL of extraction/protein precipitating solvent (50/50 acetonitrile/methanol containing 500 nM internal standard) and the plate was centrifuged to sediment precipitated protein. A volume of 200 μL of each supernatant was transferred to separate wells of a 96-well plate and 10 μl of each standard was directly analyzed by LC/MS-MS.\nAbsolute quantification versus standards prepared and extracted from liver homogenate was performed using an Aria LX-2 HPLC system (Thermo Scientific) coupled to an API 4000 triple quadrupole mass spectrometer (Applied Biosystems). […]"}, "[2]": {"test": "Rat in vivo evaluation of toxicity (serum ALT and AST)", "settings": "RDV (LNP) with ApoB siRNA, tail vein, Sprague-Dawley female rats, 24 hours after dosing; compared with RDV containing DLinKC2DMA (Compound 12)", "procedure": "(§1) Six hours post dose, food is removed from the cages. Animal necropsy is performed 24 hours after LNP dosing. Rats are anesthetized under isoflurane for 5 minutes, then maintained under anesthesia by placing them in nose cones continuing the delivery of isoflurane until ex-sanguination is completed. Blood is collected from the vena cava using a 23 gauge butterfly venipuncture set and aliquoted to serum separator vacutainers for serum chemistry analysis. Punches of the excised caudate liver lobe are taken and placed in RNALater (Ambion) for mRNA analysis. Preserved liver tissue was homogenized and total RNA isolated using a Qiagen bead mill and the Qiagen miRNA-Easy RNA isolation kit following the manufacturer's instructions. Liver ApoB mRNA levels were determined by quantitative RT-PCR. Message was amplified from purified RNA utilizing a rat ApoB commercial probe set (Applied Biosystems Cat #RN01499054_m1). The PCR reaction was performed on an ABI 7500 instrument with a 96-well Fast Block. The ApoB mRNA level is normalized to the housekeeping PPIB (NM 011149) mRNA. PPIB mRNA levels were determined by RT-PCR using a commercial probe set (Applied Biosytems Cat. No. Mm00478295_m1). Results are expressed as a ratio of ApoB mRNA/PPIB mRNA. All mRNA data is expressed relative to the PBS control dose. […]"}, "[3]": {"test_system": "mRNA transcript for the firefly (Photinus pyralis) luciferase gene", "test": "Mouse in vivo evaluation of efficacy (luciferase siRNA LNP, liver luminescence)", "settings": "RDV (LNP) with Luc siRNA, tail vein, 0.1 to 0.5 mg/kg siRNA, imaged 48 hours post dose; compared with RDV containing Compound A", "procedure": "LNPs utilizing Compound 4, in the nominal compositions described immediately above, were evaluated for in vivo efficacy. The siRNA targets the mRNA transcript for the firefly (Photinus pyralis) luciferase gene (Accession #M15077). […] The in vivo luciferase model employs a transgenic mouse in which the firefly luciferase coding sequence is present in all cells. ROSA26-LoxP-Stop-LoxP-Luc (LSL-Luc) transgenic mice licensed from the Dana Farber Cancer Institute are induced to express the Luciferase gene by first removing the LSL sequence with a recombinant Ad-Cre virus (Vector Biolabs). Due to the organo-tropic nature of the virus, expression is limited to the liver when delivered via tail vein injection. Luciferase expression levels in liver are quantitated by measuring light output, using an IVIS imager (Xenogen) following administration of the luciferin substrate (Caliper Life Sciences). Pre-dose luminescence levels are measured prior to administration of the RDVs. Luciferin in PBS (15 mg/mL) is intraperitoneally (IP) injected in a volume of 150 μL. After a four minute incubation period mice are anesthetized with isoflurane and placed in the IVIS imager. The RDVs (containing siRNA) in PBS vehicle were tail vein injected n a volume of 0.2 mL. […] In vivo efficacy results are expressed as % inhibition of luminescence relative to pre-dose luminescence levels. […]"}, "[4]": {"test_system": "mRNA transcript for the ApoB gene", "test": "Rat in vivo evaluation of efficacy (ApoB siRNA LNP, liver ApoB mRNA by RT-PCR)", "settings": "RDV (LNP) with ApoB siRNA, tail vein, Sprague-Dawley female rats, 24 hours after dosing; compared with RDV containing DLinKC2DMA (Compound 12)", "procedure": "as §1"}}, "data": [{"smiles": "CCCCC/C=C\\C/C=C\\CCCCCCCCO[C@@H]1CN(C)C[C@H]1OCCCCCCCC", "note": "(relative stereo) [Compound 4, trans-1-Methyl-3-[((9Z,12Z)-octadeca-9,12-dienyl)oxy]-4-octyloxy-pyrrolidine]", "values": [{"measurement": "cationic lipid levels in rat liver", "setting": "[1]", "result": "much lower"}, {"measurement": "tolerability (increases in serum alanine amino transferase and aspartate amino transferase)", "setting": "[2]", "result": "significantly improved tolerability"}, {"measurement": "in vivo efficacy (% inhibition of luminescence relative to pre-dose luminescence levels)", "setting": "[3]", "result": "Greater efficacy"}, {"measurement": "in vivo efficacy (liver ApoB mRNA/PPIB mRNA relative to PBS control)", "setting": "[4]", "result": "Modestly decreased efficacy"}]}]}
